Laboratory results as given in US12083187B2, “Method of treatment for solid tumors containing hypoxia and/or stroma features” (Wayne State University, priority 2017, dated 2024).
Where “and” joins values, the source holds several entries; their conditions need not be identical. Equal entries are not always repeated.

How the values were obtained:
[1] = cited from earlier work
A498 wild type = details: for Combination Index (Cl) Drug + CFM4.16: A498 wild type, non-encapsulated drug combined with non-encapsulated CFM4.16, MTT, CompuSyn, CI<1 synergistic
Experimental: (§1) Cell Viability Assays. […] After treatment, an MTT assay was performed.
(§2) In vitro cytotoxicity assay. […] First, the cells were seeded in a 96-well multiwell plate at a density of 5×10^3 cells per well. The cells were allowed to grow in fresh culture media overnight. CAIX-positive and CAIX-negative cells were generated by parallel treatments with hypoxia and normoxia as described above. After 20 h, the medium was removed, and the wells were washed twice with PBS. […] After treatment, an MTT assay was performed.
(§3) RCC is very difficult to treat as the cells are mostly resistant to many current therapies. […] First, we determined cytotoxicity of individual drugs C4.16, Sor, and Evr in both A498. […] In order to understand the safety of combination therapy, we performed the hemolysis assay using CAIX-C4.16 and combination of CAIX-C4.16+Sor.

AKT activity (pAKT) = experiment: Western blot of AKT activation in WT and Evr-res A498 cells; format: cell-based, human; details: vs untreated control
Experimental: Western Blot analysis. For protein expression analysis, western blot experiments were conducted. The RCC cells were treated with DMSO/Vehicle (Control) for the indicated doses and times of the noted compound, and were lysed to prepare protein extracts. Cells were harvested and lysed in RIPA buffer (50 mM Tris-HCl, pH 8.0, 150 mM sodium chloride, 1.0% NP-40, 0.5% sodium deoxycholate, 0.1% sodium dodecyl sulfate (SDS), and 0.1% of protease inhibitor cocktail) for 20 min at 4° C. The lysates were then centrifuged at 14,000 rpm at 4° C. for 15 min to remove debris. The protein concentrations of whole cell lysates were then determined using the Protein Assay Kit. Supernatant proteins, 50 μg from each sample, were separated by SDS-10% polyacrylamide gel electrophoresis (SDS-PAGE) and transferred to polyvinylidene difluoride (PVDF) membrane (Bio-Rad, Hercules, CA) by standard procedures. The membranes were hybridized with primary antibodies followed by incubation with appropriate secondary antibodies. […]
Mechanism of C4.16 for overcoming drug resistance. In this study, we determined how induction of apoptosis and inhibition of oncogenic survival signaling would reinforce the synergistic cell killing and reversal of drug resistance in VVT and Evr-res A498 cells when treated with CA IX C4.16+Sor. […]

caspase-3/7 = experiment: Caspase 3/7 assay in Evr-res A498 cells; format: cell-based, human; details: RCC cells, vs control
[2] = system: A498 RCC cell-derived xenografts; experiment: A498 RCC cell-derived xenograft efficacy study in SCID mice; format: in vivo, mouse; details: intravenous, 30 mg/kg/day
Experimental: A dose of 30 mg/kg/day of this preparation was administered by intravenous (tail vein) injections for a total dose of 482 mg/kg in SCID mice bearing […]. […] In addition, after the completion of the animal experiment, tumors from treatment and control groups were dissected, and cryosectioned for imaging of apoptotic signs using TUNEL (Terminal deoxynucleotidyl transferase dUTP nick end labeling) and CARP-1.
For efficacy studies, after a suitable period of acclimation, a suspension of 1×10^6 A498 RCC cells in 200 μl of serum-free Hank's balanced salt solution were subcutaneously implanted in flanks of each animal using a 27-gauge needle. Tumors were allowed to grow unperturbed for 10-14 days. When tumors became palpable (200 mm^3), the mice were randomly assigned to treatment or control groups of eight animals each. […] The end points for assessing antitumor activity consisted of tumor weight, tumor growth inhibition (% T/C), and tumor cell kill Log10. Tumor weight (mg)=(A×B2)/2 where A and B are the tumor length and width (in mm), respectively. Tumor growth inhibition (T/C) was the median tumor weight in the treated group (T) when the median tumor weight in the control group reached 750 mg. Results were expressed as percentage. […] Tumor volumes were calculated by the modified ellipsoidal formula. […]

[3] = system: A498 Everolimus resistant type; details: for Combination Index (Cl) Drug + CFM4.16: A498 Everolimus resistant type, drug combined with CFM4.16, MTT, CompuSyn
Experimental: Generation of Everolimus-resistant RCC cells.
as §1, §2, §3

[4] = system: OUK262 Everolimus resistant type; experiment: MTT / CompuSyn combination index in Everolimus resistant OUK262 RCC cells; details: drug combined with CFM4.16
Experimental: (§4) Cell Viability Assays. […] First, 5×10^3 cells were seeded in a 96-well plate in triplicate and allowed to grow in fresh culture media for another 24 h. Cells were then treated with respective agents for the noted doses and times. Control cells were treated with 0.1% DMSO in culture medium. After treatment, an MTT assay was performed. Briefly, 20 μL of 1 mg/ml of MTT was added to each well and cells were incubated for 2-4 h at 37° C. MTT was removed, and the resulting formazan products were dissolved by adding 50 μl DMSO/well followed by colorimetric analysis using a multi-label plate reader at 570 nm (Victor3; PerkinElmer, Wellesley, MA).
(§5) All the clinically drugs were treated in combination with CFM4.16 with a range of concentrations using MTT assay in the specified RCC cell line, and the data were feed to CompuSyn program to obtain the CI-value.

OUK262 wild type = experiment: MTT / CompuSyn combination index in OUK262 wild type RCC cells; details: drug combined with CFM4.16
Experimental: as §4, §5

Evr-res A498 tumor = details: mouse, in vivo
Experimental: In Vivo Imaging Studies. S0456 a reactive near-infra-red fluorochrome, was covalently linked with PLNPs and used for in vivo near-IR optical imaging of selected nanoparticle formulations. The formulations were injected intravenously in female nude mice bearing tumor xenografts. The distribution and tumor targeted delivery were imaged by tracking the fluorescent output of IRDye 800® with in vivo Imaging System (see FIG. 11).
PDX animal imaging and bio-distribution of CAIX-targeted-nanoformulation. A CAIX-targeted-nanomicelles conjugated with Near-infrared dye was administered directly via iv administration to 5-weeks old NCR SCID mice and the distribution behavior in the mice was monitored at different time points after administration using an in vivo imaging system.
To ascertain core penetrating ability of CA IX-S0456 in a drug resistant tumor model, we performed three transverse sectioning of the isolated tumor after the bio-D study.

RCC = details: cited from earlier work; for progression free survival: RCC, clinical

Compound | Combination Index (Cl) Drug + CFM4.16 (A498 wild type) | Combination Index (Cl) Drug + CFM4.16 [4] | Combination Index (Cl) Drug + CFM4.16 (OUK262 wild type) | Combination Index (Cl) Drug + CFM4.16 [3] | also measured
COc1cc2nccc(Oc3ccc(NC(=O)C4(C(=O)Nc5ccc(F)cc5)CC4)cc3)c2cc1OC [CB, cabozantinib] | – | – | – | – | well tolerated dose ([1]; mouse, in vivo): 60 mg/kg
O=C1N(Cc2ccccc2Cl)c2ccccc2C12NN=C(c1cccc(Cl)c1)S2 (stereo not drawn) [CFM-4.16] | – | – | – | – | growth inhibition (in vitro cytotoxicity, comparison) (A498 wild type): more effective in inhibiting growth of WT and Evr-res A498 compared with Sor; AKT activity (pAKT) (AKT activity (pAKT)): downregulation of pAKT; loss in body weight ([1]; 30 mg/kg/day iv, total dose 482 mg/kg, DMSO/cremophor preparation, SCID mice): < 2% and 1.6%; MTD ([1]; mouse, in vivo): 30 mg/kg; caspase-3/7 activity (caspase-3/7): induced caspase-3/7 activation; tumor growth / tumor size [2]: failed to inhibit tumor growth; growth inhibition (in vitro cytotoxicity, comparison) [3]: more effective in inhibiting growth of WT and Evr-res A498 compared with Sor
CC(C)(C)c1nc(-c2cccc(NS(=O)(=O)c3c(F)cccc3F)c2F)c(-c2ccnc(N)n2)s1 [Dabrafenib] | 0.1385 | 0.587 | 0.234 | 0.677 | –
CO[C@H]1C[C@@H]2CC[C@@H](C)[C@@](O)(O2)C(=O)C(=O)N2CCCC[C@H]2C(=O)O[C@H]([C@H](C)C[C@@H]2CC[C@@H](OCCO)[C@H](OC)C2)CC(=O)[C@H](C)/C=C(\C)[C@@H](O)[C@@H](OC)C(=O)[C@H](C)C[C@H](C)/C=C/C=C/C=C/1C [Everolimus] | 0.7 | 1.45 | 0.67 | 1.3 | growth inhibition (in vitro cytotoxicity, comparison) [3]: did not inhibit growth
O=C(c1cc(Cc2n[nH]c(=O)c3ccccc23)ccc1F)N1CCN(C(=O)C2CC2)CC1 [Olaparip] | 1.0978 | 1.312 | 0.9878 | 1.121 | –
CC(=O)c1c(C)c2cnc(Nc3ccc(N4CCNCC4)cn3)nc2n(C2CCCC2)c1=O [Palbociclib] | 0.7 | 1.0023 | 0.897 | 0.971 | –
CC1(C)C(/C=C/C2=C(Cl)C(=C/C=C3/N(CCCCS(=O)(=O)[O-])c4ccc(S(=O)(=O)[O-])cc4C3(C)C)/CCC2)=[N+](CCCCS(=O)(=O)[O-])c2ccc(S(=O)(=O)[O-])cc21.[Na+].[Na+].[Na+] [S0456] | – | – | – | – | tumor accumulation / selectivity (Evr-res A498 tumor): poor tumor accumulation with high off-target activity
CNC(=O)c1cc(Oc2ccc(NC(=O)Nc3ccc(Cl)c(C(F)(F)F)c3)cc2)ccn1 [Sorafenib] | – | – | – | – | AKT activity (pAKT) (AKT activity (pAKT)): downregulation of pAKT; progression free survival (RCC): 12 months
Nivolumab: immune-check point inhibitor (anti-PD1) approved for RCC | – | – | – | – | response rate, higher than Evr (RCC; RCC patients): 5%; progression free survival (RCC): 32 months
